Laboratory results from ChEMBL document CHEMBL1201862, “PubChem BioAssay data set” (2004).
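The compound was tested at five concentrations on cells cultured in 96-well plates, with a 48-hour exposure period. GI50: concentration for 50% inhibition of growth.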 Calls of active or inactive are those of the source. Rule as the data show it: active = GI50 up to about 1.1 µM and inactive = higher.

Key:
Assay in all cases: NCI anticancer screen, dose series, 48 h
MDA-N = tested on: MDA-N
SF-268 = tested on: SF-268
HCC 2998 = tested on: HCC 2998
HOP-92 = tested on: HOP-92
786-0 = tested on: 786-0
SN12C = tested on: SN12C
SF-539 = tested on: SF-539
HCT-15 = tested on: HCT-15
NCI-H226 = tested on: NCI-H226
OVCAR-3 = tested on: OVCAR-3
RXF 393 = tested on: RXF 393
BT-549 = tested on: BT-549
DU-145 = tested on: DU-145
UO-31 = tested on: UO-31
SNB-75 = tested on: SNB-75
LOX IMVI = tested on: LOX IMVI
HCT-116 = tested on: HCT-116
SK-MEL-28 = tested on: SK-MEL-28
UACC-62 = tested on: UACC-62

N#C/C(=C/NC(N)=S)C(N)=O
GI50 (MDA-N): > 100 µM (inactive)
GI50 (SF-268): > 100 µM (inactive)
GI50 (HCC 2998): > 100 µM (inactive)
GI50 (HOP-92): > 100 µM (inactive)
GI50 (786-0): > 100 µM (inactive)
GI50 (SN12C): > 100 µM (inactive)
GI50 (SF-539): > 100 µM (inactive)
GI50 (HCT-15): > 100 µM
GI50 (NCI-H226): > 100 µM (inactive)
GI50 (OVCAR-3): > 100 µM (inactive)
GI50 (RXF 393): > 100 µM (inactive)
GI50 (BT-549): > 100 µM (inactive)
GI50 (DU-145): > 100 µM (inactive)
GI50 (UO-31): > 100 µM (inactive)
GI50 (SNB-75): > 100 µM (inactive)
GI50 (LOX IMVI): > 100 µM (inactive)
GI50 (HCT-116): > 100 µM (inactive)
GI50 (SK-MEL-28): > 100 µM (inactive)

C1COCCN1.CN(C)c1ccc(-c2c(C#N)c(N)nc(S)c2C#N)cc1
GI50 (MDA-N): 54.1 µM (inactive)
GI50 (SF-268): > 100 µM (inactive)
GI50 (HCC 2998): 56.1 µM (inactive)
GI50 (HOP-92): 21.8 µM (inactive)
GI50 (786-0): > 100 µM (inactive)
GI50 (SN12C): 66.2 µM (inactive)
GI50 (SF-539): > 100 µM (inactive)
GI50 (HCT-15): > 100 µM
GI50 (NCI-H226): 22.6 µM (inactive)
GI50 (OVCAR-3): > 100 µM (inactive)
GI50 (RXF 393): 23.5 µM (inactive)
GI50 (BT-549): 83 µM (inactive)
GI50 (DU-145): > 100 µM (inactive)
GI50 (UACC-62): 35 µM (inactive)
GI50 (UO-31): 64.1 µM (inactive)
GI50 (SNB-75): 34.3 µM (inactive)
GI50 (LOX IMVI): 80.2 µM (inactive)
GI50 (HCT-116): > 100 µM (inactive)
GI50 (SK-MEL-28): 82.6 µM (inactive)

O=C(O)C1(Cc2ccccc2)Cc2cc3c(cc2C1)CCC3
GI50 (MDA-N): > 100 µM (inactive)
GI50 (SF-268): 78.9 µM (inactive)
GI50 (HCC 2998): 58.2 µM (inactive)
GI50 (HOP-92): 21 µM (inactive)
GI50 (786-0): > 100 µM (inactive)
GI50 (SN12C): > 100 µM (inactive)
GI50 (SF-539): > 100 µM (inactive)
GI50 (HCT-15): 52.6 µM
GI50 (NCI-H226): > 100 µM (inactive)
GI50 (OVCAR-3): > 100 µM (inactive)
GI50 (RXF 393): > 100 µM (inactive)
GI50 (BT-549): > 100 µM (inactive)
GI50 (DU-145): > 100 µM (inactive)
GI50 (UACC-62): > 100 µM (inactive)
GI50 (UO-31): 95.3 µM (inactive)
GI50 (SNB-75): > 100 µM (inactive)
GI50 (LOX IMVI): > 100 µM (inactive)
GI50 (HCT-116): 42.9 µM (inactive)
GI50 (SK-MEL-28): > 100 µM (inactive)

CC(C(N)=O)N(C)C(=O)c1cnc2ccccc2c1 (stereo not given)
GI50 (MDA-N): > 100 µM (inactive)
GI50 (SF-268): > 10 µM (inactive)
GI50 (HCC 2998): > 100 µM (inactive)
GI50 (HOP-92): > 100 µM (inactive)
GI50 (786-0): > 100 µM (inactive)
GI50 (SN12C): > 100 µM (inactive)
GI50 (SF-539): > 100 µM (inactive)
GI50 (HCT-15): > 100 µM
GI50 (NCI-H226): > 100 µM (inactive)
GI50 (OVCAR-3): > 100 µM (inactive)
GI50 (RXF 393): > 100 µM (inactive)
GI50 (BT-549): > 100 µM (inactive)
GI50 (DU-145): > 100 µM (inactive)
GI50 (UACC-62): > 100 µM (inactive)
GI50 (UO-31): > 100 µM (inactive)
GI50 (SNB-75): > 100 µM (inactive)
GI50 (HCT-116): > 100 µM (inactive)
GI50 (SK-MEL-28): > 100 µM (inactive)

COC(=O)C(Cc1ccccc1)NC(=O)CSc1nnc(COc2ccc(Cl)cc2)n1-c1ccccc1 (stereo not given)
GI50 (MDA-N): 20.5 µM (inactive)
GI50 (SF-268): 25.7 µM (inactive)
GI50 (HCC 2998): 5.61 µM (inactive)
GI50 (HOP-92): 26.4 µM (inactive)
GI50 (786-0): 16.3 µM (inactive)
GI50 (SN12C): 21.2 µM (inactive)
GI50 (SF-539): 22.4 µM (inactive)
GI50 (HCT-15): 35.2 µM
GI50 (NCI-H226): 40.6 µM (inactive)
GI50 (RXF 393): 19.1 µM (inactive)
GI50 (BT-549): 27.4 µM (inactive)
GI50 (DU-145): 34.8 µM (inactive)
GI50 (UACC-62): 14.6 µM (inactive)
GI50 (UO-31): 1.83 µM (inactive)
GI50 (SNB-75): 23.8 µM (inactive)
GI50 (LOX IMVI): 14.6 µM (inactive)
GI50 (HCT-116): 23.1 µM (inactive)
GI50 (SK-MEL-28): 27.2 µM (inactive)

O=c1cc(N2CCNCC2)nc2ccccn12
GI50 (MDA-N): > 100 µM (inactive)
GI50 (SF-268): > 100 µM (inactive)
GI50 (HCC 2998): > 100 µM (inactive)
GI50 (HOP-92): > 100 µM (inactive)
GI50 (786-0): > 100 µM (inactive)
GI50 (SN12C): > 100 µM (inactive)
GI50 (SF-539): > 100 µM (inactive)
GI50 (HCT-15): > 100 µM
GI50 (NCI-H226): > 100 µM (inactive)
GI50 (OVCAR-3): > 100 µM (inactive)
GI50 (RXF 393): > 100 µM (inactive)
GI50 (BT-549): > 100 µM (inactive)
GI50 (DU-145): > 100 µM (inactive)
GI50 (UACC-62): > 100 µM (inactive)
GI50 (UO-31): > 100 µM (inactive)
GI50 (SNB-75): > 100 µM (inactive)
GI50 (LOX IMVI): > 100 µM (inactive)
GI50 (HCT-116): > 100 µM (inactive)
